This is an account of results in patent US20010000783A1, “Treatment of interstitial cystitis” (priority 1998, published 2001).

The assay deals with Normal human bladder epithelial cells. Nature of the assay: Inhibition of APF activity by recombinant growth factors, low molecular weight urine fractions, 3H-thymidine incorporation. Conditions: simultaneous exposure to recombinant growth factor and <3 kDa urine fraction, 48 hours; HB-EGF 0-100 ng/ml (effect evident at 10 ng/ml), EGF 0-100 ng/ml, IGF-1 0-300 pg/ml; FIGS. 6A-6C. It is filed as cell-based. As for the experimental part:
Primary normal adult human bladder epithelial (HBE) cells were cultured by the method described above in Part II. On the third day of incubation, cell medium was replaced by serum free MEM containing the less than 3 kDa fraction (i.e, containing the APF) of urine specimens from IC patients or controls (i.e., that part containing the anti-proliferative factor or APF described in related application Ser. No. 08/944,202), or HPLC-purified APF or its mock control along with varying concentrations of recombinant HB-EGF (0-100 ng/ml), EGF (0-100 ng/ml), or IGF-1 (0-300 pg/ml) [all from R & D Systems, Minneapolis, Minn.] diluted in phosphate buffered saline (1:1:1). Urine was prepared by the method described above in Part II and HPLC purified APF was prepared as described above. Following an additional 48 hours of incubation at 37 degrees C. in a 5% CO2 atmosphere, cell proliferation was assessed by ^3H-thymidine incorporation according to the published methods^38.
Normal human bladder epithelial cells were exposed simultaneously to recombinant human growth factors (HB-EGF, EGF, or IGF1) and low molecular weight fractions from IC patients or control urine specimens. Cell proliferation was determined 48 hours later by 3H-thymidine incorporation (FIGS. 6A-6C). Bar values indicate the mean of 5-8 determinations. Vertical lines indicate the standard error of the mean.

In the case of “IGF1: recombinant insulin-like growth factor 1 from R & D Systems”, the “inhibition of APF antiproliferative activity” value is reported as “unable to completely inhibit APF activity”.

In the case of “epidermal growth factor (NSDSECPLSHDGYCLHDGVCMYIEALDKYACNCVVGYIGERCQYRDLKWWELR; UniProt P01133 971-1023, looked up) [EGF, recombinant epidermal growth factor from R & D Systems]”, the “inhibition of APF antiproliferative activity” value was “unable to completely inhibit APF activity”.
